Data on 5 compounds can be found in paper PMC5225183, “Fingerprinting of neurotoxic compounds using a mouse embryonic stem cell dual luminescence reporter assay” (Archives of Toxicology, 2016).

For data set [1] the following is noted: printed in column Concentration in humans; ref http://pubchem.ncbi.nlm.nih.gov/compound/16682730; cited from earlier work.
Data set [2] has as its system ESCs and ESC-derived neurons. As to the kind of experiment: Dual luminescence reporter test system, all readouts in ESCs and ESC-derived neurons. The text has this: Fig. 1 Synopsis of experimental protocols. The impact of compounds on neural promoter activity (FLuc, Firefly Luciferase under the control of the Tα1 promoter), general promoter activity (RLuc, Renilla Luciferase under the control of the EF1α promoter), and amount of DNA (PI, propidium iodide fluorescence in cell homogenates) was investigated in undifferentiated mouse embryonic pluripotent stem cells (ESCs) and on ESC-derived neurons. Arrows indicate the time of measurement of the three parameters. a Protocol for testing compounds effects on ESCs. CGR8-2Luc cells were plated on gelatin-coated 96-well plates in maintenance medium (BHK21 medium containing 10 % FCS, L-glutamine, NEAA, P/S, and LIF). Twenty-four hours later, cells were exposed to compounds for forty-eight hours. b Protocol for testing compounds on ESC-derived neurons.
(§1) At day 5, cells were then re-plated (3 × 10^5 cells/cm^2) on polyornithine-coated 96-well plates in N2 medium containing DMEM, N2 supplement, penicillin/streptomycin, and 10 ng/ml basic human fibroblast growth factor (bFGF) (Invitrogen). […] To assess toxicity of compounds on undifferentiated pluripotent stem cells (ESCs), CGR8-2Luc cells were plated at 45,000 cells/cm^2 on 0.1 % gelatin-coated dishes in BHK21 medium, supplemented with 10 % fetal calf serum, L-glutamine, non-essential amino acids, penicillin/streptomycin, and leukemia inhibitory factor (LIF). After 24 h, compounds were added and incubated for 48 h, before luciferase expression and PI fluorescence were analyzed. In all experiments, methylmercury was used as a positive control at a concentration of 5 µM.
Luciferase activities were measured with a Dual-Luciferase™ Reporter system kit. CGR8-2Luc ES cells were lysed in 96-well plates according to the manufacturer’s instructions. Luminescence measurements were performed on a Fluostar Optima reader. Luminescence counts were expressed as percentage of promoter activity normalized by comparison with the control wells treated by DMSO. […] parameters were measured in homogenates of ESCs and in ESC-derived neurons: (1) FLuc, reflecting the activity of early neural promoter Tα1. FLuc increases during neuronal differentiation. Many neurotoxic compounds may affect FLuc expression, either through impact on neuronal differentiation, through changes of neuronal gene expression, or through killing of neurons.
(§2) PI was added to cell homogenates after the luciferase test, at a final concentration of 50 µg/ml and incubated for 2 h. After incubation, fluorescence intensity was measured on a Flexstation 3 microplate reader (Excitation: 544 nm ± 15 nm; Emission: 620 nm ± 15 nm). Results are expressed as percentage of control. Propidium iodide (PI) measures total DNA content as an approximation of the cell number. A decrease in PI fluorescence was interpreted as a decrease in cell number and therefore throughout the text referred to as cytotoxicity.
To describe the shape of different concentration–response curves, arbitrary scores were assigned as follows: 0 for “no change,” 1 for “down-stroke,” 2 for “bimodal profile,” and 3 for “up-stroke” (Fig. S1). A curve was classified as “down-stroke” or “up-stroke” if the change in response values comparative to control was statistically significant (p value <0.05, one-way ANOVA with post hoc Dunnett) with an additional requirement of a 30 % decrease or increase of mean response value relative to controls, respectively. If the absolute change in mean response values was below 30 % the curve was classified as “no change.” A curve was classified as “bimodal” if first up-stroke and subsequently down-stroke was observed.

For data set [3] the following is noted: Table S1, three classes; ref per compound in the footnotes of Table S1; cited from earlier work.
The subject of data set [4] is Tubulin α1 (Tα1) promoter. Kind of data set: cells.
Source text: (§3) Dual luciferase expressing CGR8-2Luc cells were obtained by transduction of mouse ESC CGR8 cells with the 2K7 EFS-Renilla Luciferase (RLuc)/Talpha1-Firefly Luciferase (FLuc) vector as previously described (Suter et al. [2006], [2009]); EFS corresponds to the short promoter of the eukaryotic translation elongation factor 1 alpha (EF1α), and Talpha1 to the Tubulin α1 (Tα1) promoter. Tα1 was selected as a promoter active in neurons, including early stages of neural differentiation. EF1α was originally selected to function as a constitutive promoter; however, it responds to cellular differentiation as well as to various chemicals, as previously shown (Kern et al. [2013]). Cells were cultured on 0.1 % gelatin-coated dishes in CGR8-2luc maintenance medium: BHK21 medium, supplemented with 10 % fetal calf serum, L-glutamine, non-essential amino acids, penicillin/streptomycin, and leukemia inhibitory factor (LIF). CGR8 cells were grown in a feeder-independent manner (embryonic pluripotent stem cells, ESCs) as described in protocol 1 (Fig. 1) before testing compounds of interest.
(§4) Fig. 1 Synopsis of experimental protocols. The impact of compounds on neural promoter activity (FLuc, Firefly Luciferase under the control of the Tα1 promoter), general promoter activity (RLuc, Renilla Luciferase under the control of the EF1α promoter), and amount of DNA (PI, propidium iodide fluorescence in cell homogenates) was investigated in undifferentiated mouse embryonic pluripotent stem cells (ESCs) and on ESC-derived neurons. Arrows indicate the time of measurement of the three parameters. a Protocol for testing compounds effects on ESCs. CGR8-2Luc cells were plated on gelatin-coated 96-well plates in maintenance medium (BHK21 medium containing 10 % FCS, L-glutamine, NEAA, P/S, and LIF). Twenty-four hours later, cells were exposed to compounds for forty-eight hours. b Protocol for testing compounds on ESC-derived neurons. CGR8-2Luc cells were co-cultured with MS5 cells to induce neural differentiation in DMEM medium containing 15 % KO-serum, NEAA, β-mercaptoethanol, and P/S. On day 5, cells were detached and seeded on polyornithine-coated plates in DMEM medium containing N2 supplement, bFGF, and P/S; compound exposure was from day 6 to day 8
as §1, with “To test compounds on ESC-derived neurons, neuronal differentiation was carried out as previously described (Suter et al. [2009]; Xu et al. [2014]). Briefly, CGR8-2Luc cells were seeded on irradiated bone marrow-derived stromal MS5 cells and cultivated for 4 days in DMEM medium containing 15 % Knock-out™ Serum Replacement, non-essential amino acids, beta-mercaptoethanol, and penicillin/streptomycin. At” for “At”
(§5) Luciferase activities were measured with a Dual-Luciferase™ Reporter system kit. CGR8-2Luc ES cells were lysed in 96-well plates according to the manufacturer’s instructions. Luminescence measurements were performed on a Fluostar Optima reader. Luminescence counts were expressed as percentage of promoter activity normalized by comparison with the control wells treated by DMSO.

The subject of data set [5] is ESC-derived neurons.
Source text: as §4
as §1, with “To test compounds on ESC-derived neurons, neuronal differentiation was carried out as previously described (Suter et al. [2009]; Xu et al. [2014]). Briefly, CGR8-2Luc cells were seeded on irradiated bone marrow-derived stromal MS5 cells and cultivated for 4 days in DMEM medium containing 15 % Knock-out™ Serum Replacement, non-essential amino acids, beta-mercaptoethanol, and penicillin/streptomycin. At” for “At”
as §2, with “After measurement of luciferase activity, DNA quantity was determined by PI assay, as previously described (Xu et al. [2014]). PI was” for “PI was”
(§6) Lowest adverse effect level (LOAEL) was defined as the lowest tested concentrations that lead to a statistically significant decrease for a given read-out (FLuc, RLuc, and PI) compared to baseline. “Baseline” was not in all cases defined by untreated cells, but may also refer to, e.g., a state of increased activity due to low, non-toxic compound concentrations.

For data set [6], the system named is CGR8-2Luc ESCs.
Source text: as §4
as §1, with “To test compounds on ESC-derived neurons, neuronal differentiation was carried out as previously described (Suter et al. [2009]; Xu et al. [2014]). Briefly, CGR8-2Luc cells were seeded on irradiated bone marrow-derived stromal MS5 cells and cultivated for 4 days in DMEM medium containing 15 % Knock-out™ Serum Replacement, non-essential amino acids, beta-mercaptoethanol, and penicillin/streptomycin. At” for “At”
as §2, with “After measurement of luciferase activity, DNA quantity was determined by PI assay, as previously described (Xu et al. [2014]). PI was” for “PI was”
as §6

Data set [7] concerns EF1α promoter.
Source text: as §3, §4
as §1, with “To test compounds on ESC-derived neurons, neuronal differentiation was carried out as previously described (Suter et al. [2009]; Xu et al. [2014]). Briefly, CGR8-2Luc cells were seeded on irradiated bone marrow-derived stromal MS5 cells and cultivated for 4 days in DMEM medium containing 15 % Knock-out™ Serum Replacement, non-essential amino acids, beta-mercaptoethanol, and penicillin/streptomycin. At” for “At”
as §5

For data set [8], the system named is Tubulin α1 (Tα1) promoter.
Source text: as §3, §4
as §1, with “To test compounds on ESC-derived neurons, neuronal differentiation was carried out as previously described (Suter et al. [2009]; Xu et al. [2014]). Briefly, CGR8-2Luc cells were seeded on irradiated bone marrow-derived stromal MS5 cells and cultivated for 4 days in DMEM medium containing 15 % Knock-out™ Serum Replacement, non-essential amino acids, beta-mercaptoethanol, and penicillin/streptomycin. At” for “At”
as §5

For data set [9] the following is noted: cited from earlier work.
The test system of data set [10] is rats. The conditions noted are these: rats, gestational days 6–17; ref Australian Therapeutic Goods Administration [2014]; cited from earlier work.

Where two headings read alike, the source gives them in different places. Marks after values point to notes of the source that are not given here.

For the compound `CC(=O)[O][Hg][c]1ccccc1` [Phenylmercuric acetate], the oral lethal dose in data set [1] is 5–50 mg/kg (oral lethal dose)^i. Also, the “Number of non-cytotoxic changes” value in data set [2] stood at 0. Also, the “class based on clinical evidence for neurotoxicity” value (shortened to “class based on clinical evidence”) in data set [3] is listed as “Possibly (developmental)”. For the same compound, in data set [4], the “LOAEL Neurons Tα1” value was found to be 0.5 µM. Moreover, in data set [5], the “LOAEL Neurons DNA” value came out at 0.5 µM. The “LOAEL ESC DNA” value in data set [6] was 0.5 µM. Moreover, in data set [7], the “LOAEL ESC EF1α” value is recorded as 0.5 µM and the “LOAEL Neurons EF1α” value is 0.5 µM. In [8], the “LOAEL ESC Tα1” value worked out at 0.5 µM.

As to `O=C1NS(=O)(=O)c2ccccc21` [Saccharin], in data set [9] (ref Sweatman et al. ([1981])), the Concentration in humans is 218^c µM. In data set [2], the “result in the dual luminescence reporter test system” value is “negative”. In data set [2] (mouse, 48 h), the “Number of non-cytotoxic changes” value came out at 0. Besides, in [3], the “class based on clinical evidence” value was “Non-neurotoxic”. Besides, the “LOAEL Neurons Tα1” value in data set [4] (mouse) is above 50 µM. The “LOAEL Neurons DNA” value in [5] (mouse) is above 50 µM. The “LOAEL ESC DNA” value in [6] (mouse) is on record as above 50 µM. Also, in data set [7] (mouse), the “LOAEL ESC EF1α” value is listed as above 50 µM and the “LOAEL Neurons EF1α” value was above 50 µM. Besides, the “LOAEL ESC Tα1” value in data set [8] (mouse) is above 50 µM.

Regarding `Clc1cc(Cl)c(-c2cc(Cl)c(Cl)cc2Cl)cc1Cl` [PCB-153], the “Concentration in humans (human exposure concentration)” value in data set [9] (human exposure concentration, ref Zimmer et al. ([2014])) is 0.0003-0.002^k (human exposure concentration) µM. The “result in the dual luminescence reporter test system” value in data set [2] (ESCs and neurons, FLuc, RLuc, PI) is “potentially neurotoxic”. For the same compound, the “Number of non-cytotoxic changes” value in data set [2] (reporter activity changes in the non-cytotoxic concentration range, highest possible number 4) was 2. Further, the “class based on clinical evidence” value in data set [3] is reported as “Well-established (developmental)”. Moreover, in data set [4], the “effect on neural promoter activity in neurons” value was “decreased”. Also, the “effect on cell number in neurons” value in data set [5] is recorded as “without affecting the number of cells”. Besides, the “effect on general promoter activity in neurons” value in [7] is listed as “decreased”.

As to `Nc1ccc(S(=O)(=O)Nc2ncccn2)cc1` [Sulfadiazine], the Concentration in humans in data set [9] (ref Zimmer et al. ([2014])) was 320^k µM. Further, the “Number of non-cytotoxic changes” value in data set [2] (mouse, 48 h) was 0. Also, the “class based on clinical evidence” value in [3] is reported as “Possibly (developmental)”. Further, in data set [4] (mouse), the “LOAEL Neurons Tα1” value is on record as above 50 µM. Further, the “LOAEL Neurons DNA” value in [5] (mouse) is reported as above 50 µM. Besides, in data set [6] (mouse), the “LOAEL ESC DNA” value was above 50 µM. Further, in [7] (mouse), the “LOAEL ESC EF1α” value is above 50 µM and the “LOAEL Neurons EF1α” value was above 50 µM. For the same compound, the “LOAEL ESC Tα1” value in data set [8] (mouse) is above 50 µM.

For the compound `CC(=O)O[C@H]1CC[C@@]2(C)C(=CC[C@@H]3[C@@H]2CC[C@]2(C)C(c4cccnc4)=CC[C@@H]32)C1` [abiraterone acetate], the “oral dose inducing developmental toxicity” value in data set [10] is on record as at least 10 mg/kg/day.
